Experimental data taken from ChEMBL document CHEMBL4196007, “Design, synthesis and biological evaluation of novel 4-aminoquinazolines as dual target inhibitors of EGFR-PI3Kα” (Eur J Med Chem, 2018).
Blank lines part the entries; values can stand above or below the compound they belong to.

Legend:
BT-549 = assay: Cytotoxicity against human BT549 cells after 72 hrs by SRB assay; type: functional, cell-based; conditions: BT-549, 72 h
HCT-116 = assay: Cytotoxicity against human HCT116 cells after 72 hrs by SRB assay; type: functional, cell-based; conditions: HCT-116, 72 h
A549 = assay: Cytotoxicity against human A549 cells after 72 hrs by SRB assay; type: functional, cell-based; conditions: A549, 72 h
SK-HEP1 = assay: Cytotoxicity against human SKHEP1 cells after 72 hrs by SRB assay; type: functional, cell-based; conditions: SK-HEP1, 72 h
SNU-638 = assay: Cytotoxicity against human SNU638 cells after 72 hrs by SRB assay; type: functional, cell-based; conditions: SNU-638, 72 h
MCF7 = assay: Cytotoxicity against human MCF7 cells after 72 hrs by SRB assay; type: functional, cell-based; conditions: MCF7, 72 h
[1] = target: Epidermal growth factor receptor (Homo sapiens, UniProt P00533); assay: Inhibition of EGFR (unknown origin) using FAM-labeled peptide as substrate preincubated for 10 mins followed by substrate addition and measured after 1 hr by mobility shift assay
[2] = target: T1, Phosphatidylinositol 4,5-bisphosphate 3-kinase catalytic subunit delta isoform (Homo sapiens, UniProt O00329); assay: Inhibition of PI3K p110delta (unknown origin) using PIP2 as substrate by ELISA
T1 sequence (O00329 whole entry): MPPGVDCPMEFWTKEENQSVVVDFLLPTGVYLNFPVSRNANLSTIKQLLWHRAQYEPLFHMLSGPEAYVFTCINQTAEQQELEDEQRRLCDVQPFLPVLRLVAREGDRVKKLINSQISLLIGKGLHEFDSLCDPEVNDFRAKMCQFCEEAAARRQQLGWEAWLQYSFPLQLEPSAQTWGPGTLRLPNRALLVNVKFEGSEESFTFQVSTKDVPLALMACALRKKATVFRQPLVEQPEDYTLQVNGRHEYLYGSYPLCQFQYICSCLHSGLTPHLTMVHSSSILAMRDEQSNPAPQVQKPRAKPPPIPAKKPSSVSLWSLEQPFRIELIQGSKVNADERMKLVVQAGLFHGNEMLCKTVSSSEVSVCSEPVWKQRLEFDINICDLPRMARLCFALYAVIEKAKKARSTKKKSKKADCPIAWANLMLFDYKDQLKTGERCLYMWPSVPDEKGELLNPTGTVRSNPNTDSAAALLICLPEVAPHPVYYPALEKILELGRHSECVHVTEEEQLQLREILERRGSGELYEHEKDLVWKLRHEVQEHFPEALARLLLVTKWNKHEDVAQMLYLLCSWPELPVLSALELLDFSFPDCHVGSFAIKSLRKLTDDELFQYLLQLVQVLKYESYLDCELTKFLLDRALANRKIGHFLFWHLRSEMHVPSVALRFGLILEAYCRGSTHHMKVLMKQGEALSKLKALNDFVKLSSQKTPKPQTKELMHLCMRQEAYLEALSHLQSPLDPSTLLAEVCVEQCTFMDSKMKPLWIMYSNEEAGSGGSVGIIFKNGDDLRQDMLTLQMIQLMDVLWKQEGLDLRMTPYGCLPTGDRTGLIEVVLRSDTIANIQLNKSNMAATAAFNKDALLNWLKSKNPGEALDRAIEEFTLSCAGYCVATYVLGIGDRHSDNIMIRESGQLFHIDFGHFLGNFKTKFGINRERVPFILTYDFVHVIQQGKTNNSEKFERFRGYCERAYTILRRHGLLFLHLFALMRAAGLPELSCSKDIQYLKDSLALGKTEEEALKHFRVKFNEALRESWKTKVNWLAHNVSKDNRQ

[3] = target: Phosphatidylinositol 4,5-bisphosphate 3-kinase catalytic subunit gamma isoform (Homo sapiens, UniProt P48736); assay: Inhibition of PI3K p110gamma (unknown origin) using PIP2 as substrate by ELISA
[4] = target: Phosphatidylinositol 4,5-bisphosphate 3-kinase catalytic subunit beta isoform (Homo sapiens, UniProt P42338); assay: Inhibition of PI3K p110beta (unknown origin) using PIP2 as substrate by ELISA
[5] = target: Phosphatidylinositol 4,5-bisphosphate 3-kinase catalytic subunit alpha isoform (Homo sapiens, UniProt P42336); assay: Inhibition of PI3K p110alpha (unknown origin) using PIP2 as substrate by ELISA
Chain of Phosphatidylinositol 4,5-bisphosphate 3-kinase catalytic subunit alpha isoform (P42336 whole entry, canonical isoform): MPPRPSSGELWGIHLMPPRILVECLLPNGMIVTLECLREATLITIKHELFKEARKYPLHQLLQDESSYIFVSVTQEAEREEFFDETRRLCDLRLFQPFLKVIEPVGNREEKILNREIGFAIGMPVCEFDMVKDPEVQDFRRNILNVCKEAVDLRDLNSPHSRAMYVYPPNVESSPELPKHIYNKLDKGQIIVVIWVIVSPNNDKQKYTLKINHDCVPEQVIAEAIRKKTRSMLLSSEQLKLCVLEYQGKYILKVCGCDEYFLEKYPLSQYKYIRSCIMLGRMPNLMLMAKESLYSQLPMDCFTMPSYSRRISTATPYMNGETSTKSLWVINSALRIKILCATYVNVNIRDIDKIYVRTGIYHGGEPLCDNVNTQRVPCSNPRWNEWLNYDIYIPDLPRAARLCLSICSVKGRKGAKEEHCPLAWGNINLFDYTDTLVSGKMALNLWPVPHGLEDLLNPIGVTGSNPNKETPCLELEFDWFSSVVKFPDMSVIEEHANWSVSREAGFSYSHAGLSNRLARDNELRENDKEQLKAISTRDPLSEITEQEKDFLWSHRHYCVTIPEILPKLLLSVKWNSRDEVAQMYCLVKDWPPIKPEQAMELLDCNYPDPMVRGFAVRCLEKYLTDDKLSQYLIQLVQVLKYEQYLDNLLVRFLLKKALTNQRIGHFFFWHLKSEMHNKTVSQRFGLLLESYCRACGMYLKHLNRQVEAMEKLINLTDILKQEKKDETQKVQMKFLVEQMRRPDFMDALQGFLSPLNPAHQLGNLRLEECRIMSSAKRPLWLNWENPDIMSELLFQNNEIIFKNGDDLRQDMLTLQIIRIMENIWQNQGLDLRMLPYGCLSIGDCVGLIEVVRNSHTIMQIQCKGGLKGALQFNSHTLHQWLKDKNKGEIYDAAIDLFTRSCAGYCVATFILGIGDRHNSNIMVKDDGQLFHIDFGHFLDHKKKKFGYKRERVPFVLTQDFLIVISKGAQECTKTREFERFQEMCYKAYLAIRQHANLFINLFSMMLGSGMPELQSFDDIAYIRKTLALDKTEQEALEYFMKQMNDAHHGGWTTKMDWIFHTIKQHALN

Chain of Phosphatidylinositol 4,5-bisphosphate 3-kinase catalytic subunit gamma isoform (P48736 whole entry, canonical isoform): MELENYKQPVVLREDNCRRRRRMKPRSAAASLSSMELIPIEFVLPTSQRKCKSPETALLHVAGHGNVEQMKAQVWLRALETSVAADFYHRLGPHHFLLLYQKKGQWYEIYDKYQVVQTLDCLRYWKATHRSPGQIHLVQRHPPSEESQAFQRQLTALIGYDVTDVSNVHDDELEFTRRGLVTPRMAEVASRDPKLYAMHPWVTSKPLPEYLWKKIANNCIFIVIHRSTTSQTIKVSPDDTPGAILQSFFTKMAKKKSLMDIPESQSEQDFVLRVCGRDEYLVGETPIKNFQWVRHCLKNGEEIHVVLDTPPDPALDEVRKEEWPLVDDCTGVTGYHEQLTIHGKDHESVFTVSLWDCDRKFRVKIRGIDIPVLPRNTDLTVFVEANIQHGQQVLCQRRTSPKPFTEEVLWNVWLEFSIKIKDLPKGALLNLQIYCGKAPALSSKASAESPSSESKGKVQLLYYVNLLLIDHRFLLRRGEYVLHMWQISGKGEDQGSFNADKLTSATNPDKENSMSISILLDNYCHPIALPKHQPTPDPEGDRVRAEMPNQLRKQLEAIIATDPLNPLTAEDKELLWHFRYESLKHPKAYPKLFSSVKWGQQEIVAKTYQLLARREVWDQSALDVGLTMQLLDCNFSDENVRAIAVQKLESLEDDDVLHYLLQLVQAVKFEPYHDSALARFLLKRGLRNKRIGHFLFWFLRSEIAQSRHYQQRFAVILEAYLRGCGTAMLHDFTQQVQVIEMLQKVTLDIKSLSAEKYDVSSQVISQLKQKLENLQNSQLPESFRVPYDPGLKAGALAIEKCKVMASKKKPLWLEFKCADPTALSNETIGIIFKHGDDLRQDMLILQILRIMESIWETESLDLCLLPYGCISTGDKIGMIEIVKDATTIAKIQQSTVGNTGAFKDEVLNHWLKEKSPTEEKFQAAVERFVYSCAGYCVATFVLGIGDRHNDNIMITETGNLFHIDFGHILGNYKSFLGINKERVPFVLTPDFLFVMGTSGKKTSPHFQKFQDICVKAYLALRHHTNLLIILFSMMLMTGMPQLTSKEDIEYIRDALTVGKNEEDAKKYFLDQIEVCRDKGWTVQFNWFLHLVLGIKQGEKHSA
Chain of Epidermal growth factor receptor (P00533 whole entry, canonical isoform): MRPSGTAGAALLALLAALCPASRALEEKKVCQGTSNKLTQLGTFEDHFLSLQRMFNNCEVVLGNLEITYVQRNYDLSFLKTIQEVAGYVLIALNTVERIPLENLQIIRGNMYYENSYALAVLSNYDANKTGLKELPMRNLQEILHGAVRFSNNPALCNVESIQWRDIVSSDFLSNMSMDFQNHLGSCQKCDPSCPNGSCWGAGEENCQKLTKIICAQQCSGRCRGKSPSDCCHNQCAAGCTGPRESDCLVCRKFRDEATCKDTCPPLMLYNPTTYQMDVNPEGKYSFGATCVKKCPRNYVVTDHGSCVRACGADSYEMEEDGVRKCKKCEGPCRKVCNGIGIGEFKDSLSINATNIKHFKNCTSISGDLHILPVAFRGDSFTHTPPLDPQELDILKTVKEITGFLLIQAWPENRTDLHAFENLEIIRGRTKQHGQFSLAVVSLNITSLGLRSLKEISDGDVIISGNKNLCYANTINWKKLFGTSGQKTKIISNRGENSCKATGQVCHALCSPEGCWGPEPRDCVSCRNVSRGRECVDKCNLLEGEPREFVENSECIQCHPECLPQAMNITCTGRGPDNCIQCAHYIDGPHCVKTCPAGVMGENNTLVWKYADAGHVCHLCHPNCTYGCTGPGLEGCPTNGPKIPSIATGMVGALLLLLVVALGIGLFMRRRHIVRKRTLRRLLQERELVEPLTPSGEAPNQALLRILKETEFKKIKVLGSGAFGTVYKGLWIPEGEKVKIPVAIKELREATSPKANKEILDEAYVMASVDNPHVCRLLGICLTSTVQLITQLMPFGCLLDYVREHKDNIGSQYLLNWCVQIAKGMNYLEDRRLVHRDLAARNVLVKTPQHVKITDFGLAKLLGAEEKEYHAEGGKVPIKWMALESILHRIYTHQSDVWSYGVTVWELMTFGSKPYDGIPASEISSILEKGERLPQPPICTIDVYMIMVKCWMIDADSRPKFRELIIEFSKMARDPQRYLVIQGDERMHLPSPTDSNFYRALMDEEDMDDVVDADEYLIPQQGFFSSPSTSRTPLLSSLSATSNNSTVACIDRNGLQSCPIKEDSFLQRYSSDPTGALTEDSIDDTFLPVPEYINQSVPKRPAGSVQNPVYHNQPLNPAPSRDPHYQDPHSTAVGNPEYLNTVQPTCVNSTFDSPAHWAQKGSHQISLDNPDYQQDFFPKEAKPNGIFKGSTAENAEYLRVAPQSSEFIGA
Chain of Phosphatidylinositol 4,5-bisphosphate 3-kinase catalytic subunit beta isoform (P42338 whole entry, canonical isoform): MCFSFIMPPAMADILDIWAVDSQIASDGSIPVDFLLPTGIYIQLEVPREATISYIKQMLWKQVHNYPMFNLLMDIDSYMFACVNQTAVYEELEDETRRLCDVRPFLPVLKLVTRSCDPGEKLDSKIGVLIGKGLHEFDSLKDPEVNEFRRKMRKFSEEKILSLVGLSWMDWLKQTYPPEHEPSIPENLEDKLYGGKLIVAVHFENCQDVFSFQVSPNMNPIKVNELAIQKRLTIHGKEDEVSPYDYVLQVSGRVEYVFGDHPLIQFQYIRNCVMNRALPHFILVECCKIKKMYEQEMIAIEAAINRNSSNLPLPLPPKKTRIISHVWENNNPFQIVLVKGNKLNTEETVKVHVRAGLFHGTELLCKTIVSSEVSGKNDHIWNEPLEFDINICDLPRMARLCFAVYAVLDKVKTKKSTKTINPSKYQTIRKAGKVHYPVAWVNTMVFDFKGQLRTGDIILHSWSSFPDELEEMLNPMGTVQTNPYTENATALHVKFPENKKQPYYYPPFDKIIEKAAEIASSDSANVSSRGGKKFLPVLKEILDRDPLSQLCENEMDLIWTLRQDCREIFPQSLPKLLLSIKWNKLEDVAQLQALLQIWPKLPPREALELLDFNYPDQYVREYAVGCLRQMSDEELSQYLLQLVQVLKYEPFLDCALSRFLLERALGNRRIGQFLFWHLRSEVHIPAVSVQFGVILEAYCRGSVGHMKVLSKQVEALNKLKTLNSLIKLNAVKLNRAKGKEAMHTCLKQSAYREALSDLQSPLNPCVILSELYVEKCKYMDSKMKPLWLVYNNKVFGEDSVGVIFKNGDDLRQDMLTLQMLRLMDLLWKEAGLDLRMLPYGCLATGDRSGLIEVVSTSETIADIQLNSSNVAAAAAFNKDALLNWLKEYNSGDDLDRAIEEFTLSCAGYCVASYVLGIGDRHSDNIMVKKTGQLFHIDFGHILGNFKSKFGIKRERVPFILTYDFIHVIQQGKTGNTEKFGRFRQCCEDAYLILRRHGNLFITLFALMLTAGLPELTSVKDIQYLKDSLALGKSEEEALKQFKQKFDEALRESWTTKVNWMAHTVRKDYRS

Structure (SMILES): CCCCS(=O)(=O)Nc1cc(-c2ccc3ncnc(Nc4ccc(F)c(Cl)c4)c3c2)cnc1OC
IC50 (BT-549): 56.8 µM | IC50 (HCT-116): 9.99 µM | IC50 (A549): 77.1 µM | IC50 (SK-HEP1): 53.8 µM | IC50 (SNU-638): 5.35 µM | IC50 (MCF7): 65.8 µM

Structure (SMILES): CCS(=O)(=O)Nc1cc(-c2ccc3ncnc(Nc4ccc(OCc5ccc(F)cc5)c(Cl)c4)c3c2)cnc1OC
IC50 (BT-549): 14.6 µM | IC50 (HCT-116): 5.41 µM | IC50 (A549): 31.3 µM | IC50 (SK-HEP1): 1.95 µM | IC50 (SNU-638): 2.36 µM | IC50 (MCF7): 28.4 µM

Structure (SMILES): CCS(=O)(=O)Nc1cc(-c2ccc3ncnc(Nc4ccc(OC(F)(F)F)cc4)c3c2)cnc1OC
IC50 (BT-549): 8.24 µM | IC50 (HCT-116): 16.6 µM | IC50 (A549): 25.4 µM | IC50 (SK-HEP1): 6.14 µM | IC50 (SNU-638): 22.4 µM | IC50 (MCF7): 23.7 µM

Structure (SMILES): Cn1c(=O)n(-c2ccc(C(C)(C)C#N)cc2)c2c3cc(-c4cnc5ccccc5c4)ccc3ncc21 [DACTOLISIB]
IC50 (BT-549): 0.74 µM | IC50 (HCT-116): 0.84 µM | IC50 (A549): 0.62 µM | IC50 (SK-HEP1): 1.82 µM | IC50 (SNU-638): 1.24 µM | IC50 (MCF7): 1.33 µM

Structure (SMILES): CCS(=O)(=O)Nc1cc(-c2ccc3ncnc(Nc4ccc(C(=O)OC)c(OC)c4)c3c2)cnc1OC
IC50 (BT-549): 3.76 µM | IC50 (HCT-116): 1.69 µM | IC50 (A549): 3.35 µM | IC50 (SK-HEP1): 0.83 µM | IC50 (SNU-638): 3.44 µM | IC50 (MCF7): 10.9 µM

Structure (SMILES): CCS(=O)(=O)Nc1cc(-c2ccc3ncnc(Nc4ccc(F)cc4)c3c2)cnc1OC
IC50 (BT-549): 3.12 µM | IC50 (HCT-116): 3.16 µM | IC50 (A549): 7.62 µM | IC50 (SK-HEP1): 1.47 µM | IC50 (SNU-638): 2.4 µM | IC50 (MCF7): 6.51 µM

Structure (SMILES): CCS(=O)(=O)Nc1cc(-c2ccc3ncnc(Nc4cccc(F)c4)c3c2)cnc1OC
IC50 (BT-549): 2.76 µM | IC50 (HCT-116): 3.94 µM | IC50 (A549): 9.94 µM | IC50 (SK-HEP1): 1.85 µM | IC50 (SNU-638): 2.76 µM | IC50 (MCF7): 8.02 µM

Structure (SMILES): CCS(=O)(=O)Nc1cc(-c2ccc3ncnc(Nc4ccc(F)c(C(=O)OC)c4)c3c2)cnc1OC
IC50 (BT-549): 2.74 µM | IC50 (HCT-116): 2.36 µM | IC50 (A549): 3.42 µM | IC50 (SK-HEP1): 5.18 µM | IC50 (SNU-638): 2.54 µM | IC50 (MCF7): 1.15 µM

Structure (SMILES): CCS(=O)(=O)Nc1cc(-c2ccc3ncnc(Nc4ccc(OC)nc4)c3c2)cnc1OC
IC50 (BT-549): 3.49 µM | IC50 (HCT-116): 6.91 µM | IC50 (A549): 5.56 µM | IC50 (SK-HEP1): 3.44 µM | IC50 (SNU-638): 4.28 µM | IC50 (MCF7): 3.77 µM

Structure (SMILES): CCS(=O)(=O)Nc1cc(-c2ccc3ncnc(Nc4ccc(Cl)c(C(=O)OC)c4)c3c2)cnc1OC
IC50 (BT-549): 2.36 µM | IC50 (HCT-116): 3.13 µM | IC50 (A549): 2.13 µM | IC50 (SK-HEP1): 7.06 µM | IC50 (SNU-638): 2.2 µM | IC50 (MCF7): 1.43 µM

Structure (SMILES): CCCCS(=O)(=O)Nc1cc(-c2ccc3ncnc(Nc4cccc(C(=O)OCC)c4)c3c2)cnc1OC
IC50 (BT-549): 37.2 µM | IC50 (HCT-116): 26.7 µM | IC50 (A549): 42.3 µM | IC50 (SK-HEP1): 21.6 µM | IC50 (SNU-638): 25.2 µM | IC50 (MCF7): 36.4 µM

Structure (SMILES): CCS(=O)(=O)Nc1cc(-c2ccc3ncnc(Nc4ccc(OC)c(OC)c4)c3c2)cnc1OC
IC50 (BT-549): 2.59 µM | IC50 (HCT-116): 4.36 µM | IC50 (A549): 5.82 µM | IC50 (SK-HEP1): 2.84 µM | IC50 (SNU-638): 1.68 µM | IC50 (MCF7): 2.43 µM

IC50 [1]: 0.409 µM | IC50 [2]: 4.36 µM | IC50 [3]: 1.78 µM | IC50 [4]: 4.94 µM | IC50 [5]: 0.165 µM
Structure (SMILES): CCS(=O)(=O)Nc1cc(-c2ccc3ncnc(Nc4cccc(C(=O)OC)c4)c3c2)cnc1OC
IC50 (BT-549): 1.08 µM | IC50 (HCT-116): 0.4 µM | IC50 (A549): 1.1 µM | IC50 (SK-HEP1): 2.4 µM | IC50 (SNU-638): 1.12 µM | IC50 (MCF7): 10.1 µM

Structure (SMILES): CCS(=O)(=O)Nc1cc(-c2ccc3ncnc(Nc4ccc(OC)c(Cl)c4)c3c2)cnc1OC
IC50 (BT-549): 2.47 µM | IC50 (HCT-116): 5.62 µM | IC50 (A549): 5.24 µM | IC50 (SK-HEP1): 2.81 µM | IC50 (SNU-638): 3.62 µM | IC50 (MCF7): 3.32 µM

Structure (SMILES): CCS(=O)(=O)Nc1cc(-c2ccc3ncnc(Nc4ccc(F)nc4)c3c2)cnc1OC
IC50 (BT-549): 4.78 µM | IC50 (HCT-116): 7.62 µM | IC50 (A549): 6.72 µM | IC50 (SK-HEP1): 5.24 µM | IC50 (SNU-638): 6.52 µM | IC50 (MCF7): 5.39 µM

Structure (SMILES): CCS(=O)(=O)Nc1cc(-c2ccc3ncnc(Nc4ccc(F)cc4F)c3c2)cnc1OC
IC50 (BT-549): 2.48 µM | IC50 (HCT-116): 4.01 µM | IC50 (A549): 4.71 µM | IC50 (SK-HEP1): 2.49 µM | IC50 (SNU-638): 2.05 µM | IC50 (MCF7): 1.61 µM

Structure (SMILES): CCS(=O)(=O)Nc1cc(-c2ccc3ncnc(Nc4ccc(OC)cc4)c3c2)cnc1OC
IC50 (BT-549): 1.88 µM | IC50 (HCT-116): 3.49 µM | IC50 (A549): 3.58 µM | IC50 (SK-HEP1): 1.61 µM | IC50 (SNU-638): 3.97 µM | IC50 (MCF7): 1.79 µM

Structure (SMILES): COC(=O)c1cccc(Nc2ncnc3ccc(-c4cnc(OC)c(NS(=O)(=O)c5ccc(F)cc5F)c4)cc23)c1
IC50 (BT-549): 12.7 µM | IC50 (HCT-116): 1.5 µM | IC50 (A549): 10.5 µM | IC50 (SK-HEP1): 2.8 µM | IC50 (SNU-638): 0.4 µM | IC50 (MCF7): 22.4 µM
